The target of data set [1] is T1, thrombin (Homo sapiens, UniProt P00734). As to the kind of experiment: Thrombin assay, reversal of TRI 50c inhibition (Example 10, Methods A-C). Particulars: final concentration; TRI 50c 1 μM; Method A. The class given is biochemical. As to the method:
50 μl thrombin (33.3 ng/ml in assay buffer) and 20 μl vehicle or compound solution were added to 110 μl assay buffer (100 mM Na orthophosphate (80% Na2HPO4 and 20% NaH2PO4), 200 mM NaCl, 0.5% PEG 6000, 0.02% Na azide, pH 7.5) and incubated for 5 minutes at 37° C. […] Results are expressed as percentage change in thrombin activity. […] After the incubation period 100 μl of activated HDL (Method B) was added and further incubated for 30 minutes at 37° C.

Data set [2] deals with human thrombin. As to the kind of experiment: Quenching of TRI-50b neutralising activity by N-acetyl cysteine (Method B). The class given is biochemical. As to the method: Method B Method as A except that the measurement was made at a single time point. The incubation period was 20 minutes with plasma samples and 1 minute with the purified lipoproteins. Results are given as the overall percentage activity relative to a control without inhibitor. If lipid peroxides are involved in the inactivation then, the addition of n-acetyl-cysteine (NAC), a powerful anti-oxidant should reduce the neutralising activity. (NAC has been used historically to mop up reactive oxygen species). […] Plasma (1 in 10 dilution in buffer A) was incubated with 1.0 mM cupric sulphate for 4 hours. Increasing concentrations of n-acetyl cysteine were then added and also to BLp (1 in 10 dilution in buffer A). The neutralisation of TRI-50b was measured by Method B (Materials and Methods). Plasma, ▪-▪, BLp ▴-▴. A reduction in neutralising activity, to approximately base-line levels was observed when increasing concentrations of NAC were added to plasma or the bovine lipoprotein fraction (FIG. 14).

Another data set concerns thrombin clotting time. As to the kind of experiment: Example 11: TRI 50b and lipoprotein antidote in rat, thrombin clotting time. The class given is in vivo. As to the method:
The efficacy of a new specific antidote towards the dynamic activity of TRI 50b was evaluated in a rat study (n=15) (Male and Female rats circa 250-300 g).
Male and female rats were anaesthetised and arterial blood sampling lines placed.
The antidote was prepared from a bovine lipoprotein following oxidation, ultrafiltration and Concentration.
The study was divided into three groups as follows: • TRI 50b alone at a dose of 2.0 mg/kg intravenously (0.8 ml/kg: Prepared in 25% ethanol/saline) • Antidote alone (5.0 ml/kg) • TRI 50b followed by administration of the antidote.
Blood samples were taken from an arterial line into 3.8% tri-sodium citrate and plasma prepared by centrifugation.
Dynamic activity of TRI 50b was assessed in plasma samples by measurement of the thrombin clotting time.
200 ml of Lipocell (Lipoprotein fraction, Intergen catalogue number 4505-01, Lot number WT18002) was incubated at 37° C. for 37 hours. The Lipocell was then concentrated by centrifugation. The sample contained in an Amicon Centriprep YM-3 centrifugal concentrator was spun at 3800 rpm in an IEC Centra 3C centrifuge for 30 minutes at RT. The concentrated samples were pooled and centrifuged twice more to a final volume of around 50 mls. The sample was stored at 4° C.

In data set [3] the target is T1, thrombin. Briefly: Ki of hydrogen peroxide-treated TRI-50b against thrombin (Dixon plots). The class given is biochemical. Particulars: after hydrogen peroxide (3.0%) 2 hours at RT. As to the method:
The loss of activity of boropeptides when contacted with peroxide compounds was apparently due to the removal of the boronic acid moiety (as was observed upon treatment of TRI-50b with hydrogen peroxide). The boron provides at least four orders of binding energy to the peptide sequence because of the formation of a transition state-like adduct with the active site serine. […] 1 volume TRI-50b (15 mg/ml in DMSO) was added slowly to 10 volumes of hydrogen peroxide (3.0%) for 2 hours at RT. The Ki for inhibition of thrombin activity was carried out using Dixon plots. The initial rate of cleavage of S2302 (a chromogenic substrate for thrombin) by thrombin (28 nM) was determined at the different concentrations of substrate in the presence of varying concentrations of the oxidised inhibitor. This loss of binding energy was observed as a 20,000 fold increase in the Ki against thrombin (FIG. 15).

The subject of another data set is normal human plasma. As to the kind of experiment: Ecarin clotting time in human plasma (Example 10, Method D). The class given is biochemical. Particulars: 1-10 μM. The procedure: (§1) Ecarin was obtained from HTI (USA) whilst the normal human plasma was purchased from Precision Biologics via Alpha Laboratories (UK). Rat plasma was purchased from Harlan laboratories, UK.
(§2) TRI 50c was diluted in an assay buffer (100 mM sodium orthophoshate, 200 mM NaCl, 0.5% PEG 6000 and 0.02% sodium azide, pH 7.5) and incubated with normal human pooled or rat plasma (80% final) for 5 minutes at 37° C. Ecarin (100 μg/ml final) was added to the incubating solution. The clotting times were determined using a plate reader (Versamax, Molecular Devices Corporation) at 405 nm for up to 10 minutes at 37° C.

The next data set concerns rat plasma. As to the kind of experiment: Ecarin clotting time in rat plasma (Example 10, Method D). The class given is biochemical. Particulars: 10 μM; fresh rat plasma. As to the method: as §1, §2
Data set [4] has as its system human thrombin. Briefly: Total neutralising capacity towards peptide boronates (Method C). The class given is biochemical. As to conditions: for maximum number of boronate molecules destroyed by BLp: BLp in the absence of Cu2+. As to the method: Method C. 20 μl of TRI-50b dissolved in DMSO was added to 313 μl of bovine lipoprotein (diluted 1 in 10 in Buffer A, see method A above) to achieve a range of final concentrations of 164, 333, 490, 660, 820, 990, 1150, 1320 and 1480 μM, respectively. Samples were removed at timed intervals and diluted 1 in 20 with buffer A. The concentration of TRI-50b in 25 μl of this mixture was determined as described in Method A. Residual TRI-50b was determined from a standards curve. The change in concentration of TRI-50b was calculated by subtracting the residual concentration from the starting concentration.
BLp was incubated at 37° C. in the presence or absence of 1 mM cupric sulphate, Samples were taken at timed intervals and added to varying concentrations of TRI-50b up to 1.5 mM. The residual TRI-50 b was measured by Method C (Materials and Methods). —Cu^2+ […]-[…]; +Cu^2+ ▴-▴. In FIG. 10 are shown the results of an experiment in which the total mass of neutralising activity of bovine lipoprotein was determined. Increasing concentrations of TRI-50b up to 1.5 mM were added to a ten-fold dilution of the BLp fraction (OD280 nm=4.0). A rapid neutralisation of TRI-50b was observed reaching a maximum beyond which the neutralising capacity was totally exhausted. In the absence of Cu^2+, the maximum mass of TRI-50b that was neutralised was equivalent to 0.8 mM. The concentration of BLp in the mixture was 1.9 g/l or 0.0038 mM. Thus around 200 moles of TRI-50b were neutralised per mole of lipoprotein. In the presence of Cu^2+, the maximum mass of TRI-50b that was neutralised was higher and equivalent to 320 moles/mole.
A similar experiment was carried out with dilutions of plasma (FIG. 11). […] Plasma at varying dilutions was incubated at 37° C. in the presence of 1 mM cupric sulphate. Samples were taken at timed intervals and added to varying concentrations of TRI-50b up to 1.5 mM. The residual TRI-50 b was measured by Method C (Materials and Methods). 1 in 3, […]-[…]; 1 in 6, ▴-▴; 1 in 12, ▾-▾; 1 in 3 without Cu^2+, ▪-▪. […]
The low-density lipoprotein particle contains a single molecule of a 500 kDa protein and 1500 molecules of esterified cholesterol. […] Samples were taken at timed intervals and the residual TRI-50b concentration was determined by Method C (Materials and Methods).
In FIG. 13 are shown the observations made upon the neutralisation of a number of other peptide boronates by BLp added in the absence of Cu^2+, namely TRI-30, Z-D-Dpa-Pro-BoroMbg-Opin, TRI-26, Z-D-βNal-Pro-BoroIrg-Opin; TRI-142, Moc-D,L-Dpa-Pro-BoroMpg-Opinac. […] The residual concentration of boronate was determined by Method C (Materials and Methods).

The conditions of data set [5]: stored at −80° C.; cited from earlier work.
For data set [6] the following is noted: PBS pH 7.2; cited from earlier work.

“And” between values parts separate entries of the source, which are not always exact repeats. Identical values can stand only once.

By IC50 is commonly meant the concentration at which inhibition is half-maximal. The low end stands for greater potency, the high end for weaker potency.

Turning to `O=S(=O)([O-])[O-].[Cu+2]` [CuSO4, copper sulphate], the “concentration that began to reduce the inhibitory activity of TRI 50c” value on thrombin [1] is reported as “greater than 50 μM”.
For the compound `CC(=O)NC(CS)C(=O)O` (stereo not shown) [NAC, n-acetyl-cysteine], the half-maximal inhibitory concentration (IC50) in the data set with human thrombin [2] (BLp (1 in 10 dilution)) was roughly 2000 µM; in the data set with human thrombin [2] (oxidised plasma (1 in 10, 1.0 mM cupric sulphate 4 hours)), roughly 100 µM.
Regarding `COCCC[C@H](NC(=O)[C@@H]1CCCN1C(=O)[C@@H](Cc1ccccc1)NC(=O)OCc1ccccc1)B1OC(C)(C)C(C)(C)O1` [TRI 50b, Cbz-(R)-Phe-Pro-BoroMpg-OPinacol], the “elevation of thrombin clotting time over base line” value in the data set on thrombin clotting time (2.0 mg/kg intravenously, two minutes post dose) was 5.6 times base line. Further, the “thrombin clotting time (TT)” value with thrombin clotting time (2.0 mg/kg iv, 30 minutes post dose) was determined as 36 s. In the data set with thrombin clotting time (2.0 mg/kg iv, post dose), the “time for thrombin clotting time to return to base line” value was no more than 60 min. For the same compound, the thrombin clotting time in the data set on thrombin clotting time (2.0 mg/kg iv, two minutes post dose) is 128 s and 138 s. In addition, the “increase in the Ki against thrombin” value at thrombin [3] was 20,000 fold.
In the case of `COCCC[C@H](NC(=O)[C@@H]1CCCN1C(=O)[C@@H](Cc1ccccc1)NC(=O)OCc1ccccc1)B(O)O` [TRI 50c, Cbz-(R)-Phe-(S)-Pro-(R)-Mpg-B(OH)2], in the data set on normal human plasma, the “prolongation of ECT” value is on record as “concentration dependent prolongation”. In addition, in the data set on rat plasma, the ECT entry is listed as “approximately 215 seconds”.
“Moc-D,L-Dpa-Pro-BoroMpg-Opinac [TRI-142]”: the “maximum number of boronate molecules destroyed by BLp” value with human thrombin [4] was “around 65 moles/mole”.
The same measure, in the same setting: as for Z-D-Dpa-Pro-BoroMbg-Opin [TRI-30], the entry is “around 80 moles/mole”.
On the same count and under the same terms, as for Z-D-βNal-Pro-BoroIrg-Opin [TRI-26], the entry is “around 65 moles/mole”.
With cholesteryl linoleate hydroperoxide, the storage stability result in data set [5] is listed as “stable for at least six months”. In the data set with human thrombin [4] (44 μM hydroperoxide mixed with TRI-50b), the “equivalence of TRI-50b neutralisation” value was “approximately 1 mole/mole”. The “solubility in aqueous buffers” value in [6] was less than 20 µg/mL.

The record behind these values is US20060172920A1, “Oxidised lipids as reversal agents for boronic acid drugs” (priority 2004, published 2006).
